From ChEMBL document CHEMBL1123862, “Binding orientation of amphetamine and norfenfluramine analogues in the benzonorbornene and benzobicyclo[3.2.1]octane ring systems at the active site of phenylethanolamine N-methyltransferase (PNMT)” (J Med Chem, 1987)

What was measured:
[1] = target: T1, Phenylethanolamine N-methyltransferase (Bos taurus, UniProt P10938); experiment: (§1) Inhibition of Phenylethylamine N-Methyltransferase (PNMT) using radiochemical assay
T1 sequence (P10938 whole entry): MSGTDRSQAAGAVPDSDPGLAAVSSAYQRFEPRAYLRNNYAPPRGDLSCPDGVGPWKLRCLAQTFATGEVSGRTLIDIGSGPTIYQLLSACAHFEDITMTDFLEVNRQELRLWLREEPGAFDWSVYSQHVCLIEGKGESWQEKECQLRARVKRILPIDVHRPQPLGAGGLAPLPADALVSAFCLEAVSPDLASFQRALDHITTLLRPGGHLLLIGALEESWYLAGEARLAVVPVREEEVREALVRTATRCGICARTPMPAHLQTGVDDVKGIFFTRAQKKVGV

[2] = compound: NC1C2CC[C@H]1c1ccccc12; experiment: as §1
[3] = compound: N[C@@H]1C2CCC1c1ccc(C(F)(F)F)cc1C2; experiment: as §1
[4] = compound: N[C@@H]1C2CCC1c1cccc(C(F)(F)F)c1C2; experiment: as §1
[5] = compound: N[C@@H]1CC2CC1c1ccc(C(F)(F)F)cc12; experiment: as §1
[6] = compound: N[C@@H]1CC2CC1c1cccc(C(F)(F)F)c12; experiment: as §1
[7] = compound: N[C@@H]1CC2C[C@@H]1c1ccccc12; experiment: as §1
[8] = compound: N[C@H]1C2CCC1c1cc(C(F)(F)F)ccc12; experiment: as §1

## N[C@H]1C2CCC1c1cc(C(F)(F)F)ccc1C2 (some centres not stated)
[1]
  Ki: 801 µM

## N[C@H]1C2CCC1c1c2cccc1C(F)(F)F (some centres not stated)
[1]
  Ki: 12.1 µM

## N[C@@H]1C2CCC1c1c(cccc1C(F)(F)F)C2 (some centres not stated)
[1]
  Ki: 51.1 µM

## N[C@H]1C2CCC1c1ccc(C(F)(F)F)cc1C2 (some centres not stated)
[1]
  Ki: 1800 µM

## N[C@H]1C2CCC1c1ccccc1C2 (some centres not stated)
[1]
  Ki: 8900 µM

## N[C@@H]1CC2CC1c1c2cccc1C(F)(F)F (some centres not stated)
[1]
  Ki: 350 µM

## N[C@@H]1CC2CC1c1cc(C(F)(F)F)ccc12 (some centres not stated)
[1]
  Ki: 204 µM

## NC1CCc2ccccc2C1 (configuration not stated)
[1]
  Ki: 15 µM

## N[C@H]1C2CCC1c1c(cccc1C(F)(F)F)C2 (some centres not stated)
[1]
  Ki: 191 µM

## N[C@@H]1C2CCC1c1cc(C(F)(F)F)ccc1C2 (some centres not stated)
[1]
  Ki: 31.8 µM

## N[C@@H]1C2CCC1c1ccccc1C2 (some centres not stated)
[1]
  Ki: 106 µM

## N[C@@H]1CC2CCC1c1ccccc12 (some centres not stated)
[1]
  Ki: 1300 µM

## NC1C2CC[C@H]1c1ccccc12 (some centres not stated)
[1]
  Ki: 258 µM

## N[C@H]1C2CCC1c1cccc(C(F)(F)F)c1C2 (some centres not stated)
[1]
  Ki: 1430 µM

B1: Phenylethanolamine N-methyltransferase (Bos taurus), P10938 (protein)
chain: MSGTDRSQAAGAVPDSDPGLAAVSSAYQRFEPRAYLRNNYAPPRGDLSCPDGVGPWKLRCLAQTFATGEVSGRTLIDIGSGPTIYQLLSACAHFEDITMTDFLEVNRQELRLWLREEPGAFDWSVYSQHVCLIEGKGESWQEKECQLRARVKRILPIDVHRPQPLGAGGLAPLPADALVSAFCLEAVSPDLASFQRALDHITTLLRPGGHLLLIGALEESWYLAGEARLAVVPVREEEVREALVRTATRCGICARTPMPAHLQTGVDDVKGIFFTRAQKKVGV
[2]
  Km: 151 µM
  Vmax: 0.17 nmol/min/mg
[3]
  Km: 45.8 µM
  Vmax: 0.46 nmol/min/mg
[4]
  Km: 34.4 µM
  Vmax: 0.52 nmol/min/mg
[5]
  Km: 52 µM
  Vmax: 1.38 nmol/min/mg
[6]
  Km: 33 µM
  Vmax: 0.49 nmol/min/mg
[7]
  Vmax: 0.04 nmol/min/mg
[8]
  Km: 14.6 µM
  Vmax: 0.57 nmol/min/mg
